From patent US20230192617A1, “AZABICYCLIC(THIO)AMIDES AS FUNGICIDAL COMPOUNDS” (Bayer CropScience Aktiengesellschaft, priority 2020, published 2023)

Legend:
[1] = system: Colletotrichum lindemuthianum; experiment: In vivo preventive test on Colletotrichum lindemuthianum (leaf spot on bean); conditions: 168 h, 500 ppm of active ingredient, preventive spray on bean, evaluated 7 days after inoculation, read-out: efficacy
Method in brief: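 Young bean plants sprayed with compound in DMSO/acetone/Tween 80 diluted in water; solvent-only controls. Inoculated 24 h later with C. lindemuthianum spore suspension, then kept 24 h at 20 °C/100% RH and 6 days at 20 °C/90% RH.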

[2] = system: Pyrenophora teres; experiment: B-10. Pyrenophora teres in vitro cell test; assay type: cell-based; conditions: 144 h, 20 ppm of active ingredient, 6 days incubation, liquid culture, absorbance, read-out: efficacy (inhibition of fungal growth)
Method in brief: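 Liquid-culture assay on a P. teres spore suspension with compounds added to the medium from DMSO solutions, final DMSO ≤1%. Mycelium growth read spectrometrically after 6 days. Inhibition calculated from absorbance against untreated control wells.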

[3] = system: Botrytis cinerea; experiment: B-11. Botrytis cinerea in vitro cell test; assay type: cell-based; conditions: 144 h, 20 ppm of active ingredient, 6 days incubation, liquid culture, absorbance, read-out: efficacy (inhibition of fungal growth)
Method in brief: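 B. cinerea spores were grown in liquid culture with compound (DMSO ≤1% final). Mycelium growth was measured spectrometrically after 6 days, with inhibition taken as absorbance relative to untreated control wells.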

[4] = system: Alternaria alternata; experiment: Alternaria alternata in vitro cell test; assay type: cell-based; conditions: 120 h, 20 ppm of active ingredient, liquid culture, 5 days incubation, spectrometric measurement of mycelium growth, read-out: efficacy (inhibition of fungal growth)
Method in brief: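 Liquid culture assay in which A. alternata spores in medium received DMSO-solubilized compound (final DMSO ≤1%). After 5 days, mycelium growth was measured spectrometrically. Inhibition was calculated against fungicide-free control wells.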

[5] = system: Colletotrichum lindemuthianum; experiment: B-8. Colletotrichum lindemuthianum in vitro cell test; assay type: cell-based; conditions: 144 h, 20 ppm of active ingredient, 6 days incubation, liquid culture, absorbance, read-out: efficacy (inhibition of fungal growth)
Method in brief: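 Spore suspension of C. lindemuthianum in liquid medium exposed to DMSO-solubilized compounds (final DMSO ≤1%) for 6 days. Mycelial growth read by absorbance, with inhibition calculated relative to compound-free control wells.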

[6] = system: Sphaerotheca fuliginea; experiment: In vivo preventive test on Sphaerotheca fuliginea (powdery mildew on cucurbits); conditions: Podosphaera fuliginea, 192 h; 500 ppm of active ingredient; preventive spray on gherkin; evaluated 8 days after inoculation; read-out: efficacy
Method in brief: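 Young gherkin plants were sprayed with compound in DMSO/acetone/Tween 80 diluted in water. They were inoculated 24 h later with a spore suspension of Sphaerotheca fuliginea. Plants were then kept for 8 days at 20 °C and 70–80% relative humidity.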

[7] = system: Pyrenophora teres; experiment: In vivo preventive test on Pyrenophora teres (net blotch on barley); conditions: 240 h, 500 ppm of active ingredient, preventive spray on barley, evaluated 10 days after inoculation, read-out: efficacy
Method in brief: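 Young barley plants sprayed preventively with compound formulated in DMSO/acetone/Tween 80 and diluted in water; controls got solvent only. Inoculated 24 hours later with P. teres spore suspension, then held 48 hours at 20° C, 100% RH and 8 days at 20° C, 70-80% RH.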

[8] = system: Alternaria brassicae; experiment: In vivo preventive test on Alternaria brassicae (leaf spot on radish or cabbage); conditions: 500 ppm of active ingredient, preventive spray on radish or cabbage, evaluated 3 to 4 days after inoculation, read-out: efficacy
Method in brief: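 Young radish or cabbage plants were sprayed with compound dissolved in DMSO/acetone/Tween 80 and diluted in water; controls received solvent only. Inoculation by spraying A. brassicae spore suspension 24 h later, then 3–4 days at 20 °C and 100% relative humidity.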

Structure (SMILES)	pest or weed control at 500 ppm [1]	inhibition at 20 ppm [2]	inhibition at 20 ppm [3]	inhibition at 20 ppm [4]	inhibition at 20 ppm [5]	pest or weed control at 500 ppm [6]	pest or weed control at 500 ppm [7]	pest or weed control at 500 ppm [8]
O=C(NC[C@H](F)c1ccc(Cl)cc1Cl)c1c(Oc2cccc(C3CC3)c2F)nnc2ccccc12 (racemic) [I-072]	90 to 100%	90 to 100%	90 to 100%	90 to 100%	90 to 100%	90 to 100%	90 to 100%	90 to 100%
Cc1ccc([C@@H](F)CNC(=O)c2c(Oc3cccc(C(F)(F)F)c3)nnc3ccccc23)cc1C (racemic) [I-084]	90 to 100%	90 to 100%	90 to 100%	90 to 100%	90 to 100%	80 to 89%	90 to 100%	90 to 100%
Cc1ccc(C(F)(F)CNC(=O)c2c(Oc3cccc(C(F)(F)F)c3)nnc3cc(C)ccc23)c(Cl)c1 [I-245]	80 to 89%	90 to 100%	90 to 100%	90 to 100%	90 to 100%	90 to 100%	90 to 100%	90 to 100%
Cc1cc(Br)ccc1C(F)(F)CNC(=O)c1c(Oc2cccc(Cl)c2)nnc2c1CCCC2 [I-151]	90 to 100%	90 to 100%	90 to 100%	90 to 100%	90 to 100%	90 to 100%	80 to 89%	90 to 100%
O=C(NCC(F)c1ccc(Cl)cc1Cl)c1c(Oc2cccc(Cl)c2F)nnc2c1CCCC2 (stereo not shown) [I-149]	90 to 100%	90 to 100%	90 to 100%	90 to 100%	90 to 100%	90 to 100%	90 to 100%	90 to 100%
Cc1ccc(C(F)(F)CNC(=O)c2c(Oc3cccc(C(F)(F)F)c3)nnc3c2CCC3)c(C)c1 [I-132]	90 to 100%	90 to 100%	90 to 100%	90 to 100%	90 to 100%	90 to 100%	90 to 100%	90 to 100%
Cc1ccc(C(F)(F)CNC(=O)c2c(Oc3cccc(C4CC4)c3F)nnc3c2CCC3)c(C)c1 [I-134]	90 to 100%	90 to 100%	90 to 100%	90 to 100%	90 to 100%	90 to 100%	80 to 89%	90 to 100%
O=C(NCC(F)c1ccc(Cl)cc1Cl)c1c(Oc2cccc(C3CC3)c2)nnc2c1CCCC2 (stereo not shown) [I-119, 3-(3-cyclopropylphenoxy)-N-[2-(2,4-dichlorophenyl)-2-fluoro-ethyl]-5,6,7,8-tetrahydrocinnoline-4-carboxamide]	90 to 100%	90 to 100%	90 to 100%	90 to 100%	90 to 100%	90 to 100%	90 to 100%	90 to 100%
Cc1ccc(C(F)(F)CNC(=O)c2c(Oc3cccc(C(F)F)c3)cnc3ccccc23)c(C)c1 [I-220]	80 to 89%	90 to 100%	90 to 100%	90 to 100%	90 to 100%	90 to 100%	70 to 79%	90 to 100%
Cc1ccc(C(F)(F)CNC(=O)c2c(Oc3cccc(Cl)c3F)nnc3c2CCC3)c(C)c1 [I-133]	90 to 100%	90 to 100%	90 to 100%	90 to 100%	90 to 100%	90 to 100%	90 to 100%	90 to 100%
O=C(NCC(F)c1ccc(Cl)cc1Cl)c1c(Oc2cccc(C(F)(F)F)c2)nnc2c1CCC2 (stereo not shown) [I-186]	90 to 100%	90 to 100%	90 to 100%	90 to 100%	90 to 100%	90 to 100%	90 to 100%	90 to 100%
